Like-named read-outs stand apart in the source and are kept apart here. Ends that are not written are not given here.
Tests used:
[1] = system: Arabidopsis mesophyll protoplasts; assay: Phytotoxicity on plant protoplasts; type: cell-based; conditions: for phytotoxicity to plant protoplasts (in words) / Phytotoxicity: peptide concentration where protoplasts show first signs of cytoplasmic degradation: 1 h incubation, light microscope; for Phytotoxicity: peptide concentration where protoplasts show first signs of cytoplasmic degradation: 0, 10, 100, 200 µg/ml; for phytotoxicity (in words): concentrations up to 100 µg/ml
Description: Phytotoxicity was measured on Arabidopsis mesophyll protoplasts prepared from leaves as described in [80]. 80 µl protoplast suspension containing about 5000 protoplasts were incubated with 20 µl peptide solution. Final peptide concentrations were 0, 10, 100 and 200 µg/ml. The phytotoxic effect of antimicrobial peptides was observed after 1 h with a light microscope. Hints to cell death are loss of spherical shape, chloroplast release and/or agglomeration of protoplasts.

[2] = system: Clavibacter michiganensis ssp. michiganensis; conditions: LB-medium, 27°C
[3] = system: Pectobacterium carotovorum ssp. carotovorum; conditions: LB-medium, 27°C
[4] = system: Xanthomonas vesicatoria; conditions: LB-medium, 27°C
[5] = system: Pseudomonas syringae pv. syringae; conditions: LB-medium, 27°C
[6] = system: Pseudomonas corrugata; conditions: LB-medium, 27°C
[7] = system: P. syringae pv. tomato DC3000; conditions: peptide concentrations up to 100 µg/ml, sprayed; cfu 30 min after treatment
[8] = system: P. syringae; conditions: Table S5; 10 µg/ ml peptide; organism P. syringae pv syrimgae [sic]
[9] = system: human erythrocytes; assay: Hemolytic activity (hemoglobin release); type: cell-based
Description: The hemolytic activity of the peptides was evaluated by determining hemoglobin release of suspensions of fresh human erythrocytes at 405 nm. Human red blood cells (Deutscher Blutspendedienst, München, Germany) were centrifuged and washed three times with Tris-buffer (10 mM Tris, 150 mM NaCl, pH 7.4). 80 µl of cells (1.5×10^9 cells/ml) were added to 20 µl of the peptide solution in 96-well plates and incubated for 45 min at 37°C. Final peptide concentrations were 0, 20, 50, 100 and 200 µg/ml. After centrifugation (1,500 g, 5 min, 20°C) 30 µl aliquots of the supernatant were transferred to 96-well plates containing 100 µl of water and released hemoglobin was determined using a microplate reader (OD405 nm). 100% hemolysis was determined with 2% SDS.

[10] = system: tested plant pathogens; assay: Microdilution assay, activity summarised over several tested plant pathogens; type: cell-based
Description: In-vitro inhibition assays were performed in sterile flat-bottom 96-well polypropylene-plates (Greiner bio-one, Frickenhausen, Germany). 10 µl (antibacterial assay) or 20 µl (antifungal assay) of each concentration were loaded per well. Fresh bacterial colonies were transferred into LB-medium, grown to an OD600 nm of 0.08–0.1 and diluted 1∶100 with medium. 90 µl of this suspension containing about 10^5 CFU/ml of bacteria were added to each well resulting in final peptide concentrations from 0 to 100 µg/ml. After incubation at 27°C for 1–2d bacterial growth was analyzed by measuring the OD590 nm using a Tecan Genios microplate reader (Crailsheim, Germany).
Spores of plant pathogenic fungi were collected by washing sporulating cultures with water. Spore concentration was determined by haematocytometer and adjusted to 1.5–2×10^3 spores/ml in 2% malt extract medium. 80 µl of fungal spores were added per well resulting in final peptide concentrations from 0 to 100 µg/ml. After incubation at room temperature for 3d on a rotary shaker (300 rpm), fungal growth was determined by measuring the OD590 nm (Alternaria sp.) or by visual screening of the plates (Botrytis sp., Cladosporium sp.). The lowest peptide concentration, where no visible microbial growth could be detected, was determined for each organism-peptide combination and referred to as the minimal inhibitory concentration (MIC). At least two independent replicates were performed.

[11] = system: human erythrocytes; conditions: cited from earlier work
[12] = system: Pseudomonas syringae pv. tomato; conditions: LB-medium, 27°C
[13] = system: A. alternata; assay: Peptide spraying on inoculated tomato leaves, fungal growth; type: in vivo, A. alternata on tomato (Microtom); conditions: 50 µg/ml peptide sprayed 22 h after inoculation (10^4 spores/ml); fungal DNA by RT-PCR
Description: (§1) To determine antifungal activity of AMPs four week old tomato plants (Microtom) were inoculated with fungal spores using an aerosol can. Spores were harvested by washing sporulating plate-grown fungi (A. alternata and C. herbarum) with 62.5 mM KH2PO4 (pH 6.0) supplemented with 5.5 mM glucose and 0.1% Tween-20. One leaf per plant (three plants per treatment) was sprayed adaxial and abaxial with 500 µl spore suspension (10^4 spores/ml). In this way approximately 100 µl spore suspension was applied directly onto the plant surface. Plants were covered with a plastic cap to guarantee high humidity and incubated at 20°C. After two hours the T0 tissue sample was collected. AMPs were sprayed onto the leaf surface 22 h after inoculation. Leaves were harvested 24 h and 48 h after peptide treatment. Frozen material was homogenized in liquid nitrogen and fungal DNA was isolated. Quantification of fungal DNA content was done by qRT-PCR amplifying the nuclear encoded ribosomal internal transcribed spacer (ITS) regions. ITS1-forward and ITS4-reverse primers were used at an annealing temperature of 60°C: For A. alternata: ITS1-Alt-for, 5′-[…]-3′ and ITS4_Alt-rev, 5′-[…]-3′ and for C. herbarum: ITS1-Cla-for 5′-[…]-3′ and ITS4-Cla-rev, 5′-[…]-3′ (synthesized by metabion, Munich, Germany). […] Differences between the mean values were analysed using an unpaired t-test analysis of variance.

[14] = system: Botrytis cinerea; conditions: 2% malt extract medium, 1.5–2×10^3 spores/ml, room temperature, 3d, visual screening; lowest concentration with no visible growth; at least two independent replicates
[15] = system: Alternaria alternata; conditions: 2% malt extract medium, 1.5–2×10^3 spores/ml, room temperature, 3d, OD590 nm; lowest concentration with no visible growth; at least two independent replicates
[16] = system: Cladosporium herbarum; conditions: 2% malt extract medium, 1.5–2×10^3 spores/ml, room temperature, 3d, visual screening; lowest concentration with no visible growth; at least two independent replicates
[17] = system: C. herbarum; assay: Peptide spraying on inoculated tomato leaves, fungal growth; type: in vivo, C. herbarum on tomato (Microtom); conditions: 5 µg/ml peptide sprayed 22 h after inoculation (10^4 spores/ml); fungal DNA by RT-PCR
Description: as §1

[18] = system: Fusarium solani; conditions: 2% malt extract medium, room temperature, 3d; concentration range 1 to 64 µg/ml
[19] = about 10^5 CFU/ml, 1–2d, OD590 nm, at least two independent replicates

Molecule: RKKRLKLLKRLL-NH2 [SP1-1]
- phytotoxicity to plant protoplasts (in words) [1]: very low phytotoxicity
- Phytotoxicity: peptide concentration where protoplasts show first signs of cytoplasmic degradation [1]: 200 µg/mL
- MIC ([2]; Table 4, incubation period 2d): 2.5 µg/mL
- MIC ([3]; Table 4, incubation period 1d): >10 µg/mL
- MIC ([4]; Table 4, incubation period 2d): 0.1 µg/mL
- MIC ([5]; Table 4, incubation period 1d): 0.1 µg/mL
- MIC ([6]; Table 4, incubation period 2d): <0.1 µg/mL
- growth inhibition on tomato leaves [7]: 90%
- Growth inhibition of bacteria/fungi on leaf surface [8]: 40%

Molecule: CC(C)C[C@H](NC(=O)[C@H](CCCNC(=N)N)NC(=O)CNC(=O)CNC(=O)[C@@H](N)CCCNC(=N)N)C(=O)N[C@H]1CSSC[C@@H](C(=O)N[C@H](C(=O)NCC(=O)N[C@@H](CCCNC(=N)N)C(N)=O)C(C)C)NC(=O)[C@H](C(C)C)NC(=O)[C@@H]2CSSC[C@H](NC(=O)[C@H](Cc3ccc(O)cc3)NC1=O)C(=O)N[C@@H](CCCNC(=N)N)C(=O)N[C@@H](CCCNC(=N)N)C(=O)N[C@@H](CCCNC(=N)N)C(=O)N[C@@H](Cc1ccccc1)C(=O)N2 [Protegrin I, reference compound]
- hemoglobin release ([9]; 50 µg/ml peptide, human red blood cells): 25%
- Activity range: peptide concentrations necessary to inhibit growth of the listed bacteria strains ([10]; Table S5, strains listed under strain specificity): 1 to 8 µg/mL
- Hemolytic activity [11]: < 80 µg/mL
- Hemolytic activity: peptide concentration leading to 25% hemoglobin release: 50 µg/mL

Molecule: LRFLKKALKKLF-NH2 [SP10-2]
- Hemolytic activity: peptide concentration leading to 25% hemoglobin release from human blood cells [9]: > 200 µg/mL
- phytotoxicity to plant protoplasts (in words) [1]: very low phytotoxicity
- Phytotoxicity: peptide concentration where protoplasts show first signs of cytoplasmic degradation [1]: 200 µg/mL
- MIC ([2]; Table 4, incubation period 2d): 0.25 µg/mL
- MIC ([3]; Table 4, incubation period 1d): 1.0 µg/mL
- MIC ([4]; Table 4, incubation period 2d): 0.25 µg/mL
- MIC ([12]; Table 4, incubation period 1d): 0.5 µg/mL
- MIC ([5]; Table 4, incubation period 1d): 0.1 µg/mL
- MIC ([6]; Table 4, incubation period 2d): 0.5 µg/mL
- growth inhibition on tomato leaves [7]: 90%
- Growth inhibition of bacteria/fungi on leaf surface [8]: 50%

Molecule: LRFLKKILKHLF-NH2 [SP10-D]
- phytotoxicity (in words) [1]: no phytotoxicity
- growth inhibition on tomato leaves [13]: around 70%
- MIC [14]: 10 µg/mL
- MIC [15]: 5 µg/mL
- MIC [16]: 5 µg/mL
- MIC [2, 19]: 5 µg/mL
- MIC [3, 19]: > 40 µg/mL
- MIC [4, 19]: 2 µg/mL

Molecule: LRIIKKILKKLI-NH2 [SP10-5]
- phytotoxicity to plant protoplasts (in words) [1]: very low phytotoxicity
- Phytotoxicity: peptide concentration where protoplasts show first signs of cytoplasmic degradation [1]: 200 µg/mL
- MIC ([2]; Table 4, incubation period 2d): 0.5 µg/mL
- MIC ([3]; Table 4, incubation period 1d): 2.5 µg/mL
- MIC ([4]; Table 4, incubation period 2d): 0.25 µg/mL
- MIC ([12]; Table 4, incubation period 1d): 0.25 µg/mL
- MIC ([5]; Table 4, incubation period 1d): 0.5 µg/mL
- MIC ([6]; Table 4, incubation period 2d): 0.5 µg/mL
- growth inhibition on tomato leaves [7]: 90%
- Growth inhibition of bacteria/fungi on leaf surface [8]: 70%

Molecule: KRRLIARILRLAARALVKKR-NH2 [SP13-D]
- phytotoxicity (in words) [1]: no phytotoxicity
- growth inhibition on tomato leaves [17]: More than 80%
- MIC [14]: > 40 µg/mL
- MIC [15]: 20 µg/mL
- MIC [16]: 5 µg/mL
- MIC [2, 19]: 10 µg/mL
- MIC [3, 19]: > 40 µg/mL
- MIC [4, 19]: 2 µg/mL
- MIC [12, 19]: 1 µg/mL
- MIC [6, 19]: 40 µg/mL

Molecule: GIGKFLHSAKKFGKAFVGEIMNS [Magainin II, reference compound]
- active concentrations (MIC) ([10]; statement over some / the majority of the tested plant pathogens or bacteria): 1 to 8 µg/mL
- MIC [14]: 64 µg/mL
- MIC [15]: > 64 µg/mL
- MIC [16]: 64 µg/mL
- MIC [18]: 2 µg/mL
- MIC [2, 19]: 32 µg/mL
- MIC [3, 19]: > 64 µg/mL
- MIC [4, 19]: 8 µg/mL
- MIC [12, 19]: 32 µg/mL
- MIC [5, 19]: > 64 µg/mL
- MIC [6, 19]: 32 µg/mL
- Hemolytic activity ([11]; Table S5, ref Zasloff, 1987): 5 µg/mL
